How the values were obtained:
Surinam grass = assay: Test B pre-/postemergence herbicide test; type: in vivo, Urochloa decumbens; details: for Surinam Grass plant response rating: postemergence
Summary of the method: (§1)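 Formulation: non-phytotoxic solvent mix with surfactant. Timing: preemergence on seed and postemergence on 2–18 cm plants, applied concurrently. Readout after 13–15 d greenhouse: visual 0–100 control rating against controls.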

rice [1] = assay: Test B pre-/postemergence herbicide test; type: in vivo, Oryza sativa; details: 0 = no effect, 100 = complete control, preemergence
Summary of the method: as §1

barnyardgrass [2] = assay: Test B flooded paddy test; type: in vivo, Echinochloa crus-galli; details: 1000 g ai/ha, scale 0 to 100 (0 no effect, 100 complete control)
Summary of the method: (§2)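 Postemergence plants were sprayed with formulated test chemicals at 2 to 18 cm height (1- to 4-leaf stage); paddy species were grown to the 2-leaf stage. After 13 to 15 days in a greenhouse, injury was rated visually against untreated controls on a 0–100 scale (0 = no effect, 100 = complete control).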

morningglory [3] = assay: Test B pre-/postemergence herbicide test; type: in vivo, Ipomoea coccinea; details: for Morningglory plant response rating: postemergence
Summary of the method: (§3)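 Seeds were planted and treated preemergence with compounds formulated in a non-phytotoxic solvent mixture containing surfactant, while plants at the 1- to 4-leaf stage (2 to 18 cm) received postemergence sprays. Flooded paddy plants were grown to the 2-leaf stage. After 13 to 15 days in a greenhouse, injury was visually rated 0–100 against untreated controls.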

lambsquarters = assay: Test B pre-/postemergence herbicide test; type: in vivo, Chenopodium album; details: for Lambsquarters plant response rating: postemergence
Summary of the method: as §1

wild oat = assay: Test B postemergence herbicide test; type: in vivo, Avena fatua; details: postemergence
Summary of the method: (§4)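 Read-out: visual comparison with controls, scored 0 to 100, where 100 means complete control and 0 no effect. Formulated chemicals were applied postemergence to plants 2–18 cm tall (1- to 4-leaf), or to flooded-paddy plants at the 2-leaf stage, then held 13 to 15 days under glass.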

rice [4] = assay: Test B flooded paddy test; type: in vivo, Oryza sativa; details: 1000 g ai/ha, scale 0 to 100 (0 no effect, 100 complete control)
Summary of the method: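 Scale 0–100: zero equals no visible effect, 100 complete control, judged by eye relative to controls. Timing: 13 to 15 days in greenhouse post-treatment. Growth stage at spraying: two leaves (paddy) or one to four leaves, 2–18 cm (postemergence).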

giant foxtail [5] = assay: Test A pre-/postemergence herbicide test; type: in vivo, Setaria faberi
Summary of the method: (§5)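 Seeds sown in sandy loam received a preemergence directed soil spray of compound in non-phytotoxic solvent with surfactant; postemergence plants (2–10 cm, one- to two-leaf stage) were sprayed to runoff at the same time. After ~10 days in greenhouse, injury was rated visually versus untreated controls (0 = no effect, 100 = complete control).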

blackgrass = assay: Test B postemergence herbicide test; type: in vivo, Alopecurus myosuroides; details: postemergence
Summary of the method: as §2

barnyardgrass [6] = assay: Test A pre-/postemergence herbicide test; type: in vivo, Echinochloa crus-galli
Summary of the method: as §5

velvetleaf [7] = assay: Test A pre-/postemergence herbicide test; type: in vivo, Abutilon theophrasti
Summary of the method: as §5

large crabgrass [8] = assay: Test A pre-/postemergence herbicide test; type: in vivo, Digitaria sanguinalis
Summary of the method: as §5

corn = assay: Test B pre-/postemergence herbicide test; type: in vivo, Zea mays; details: for Corn plant response rating: postemergence
Summary of the method: as §1

[9] = test system: small flower umbrella sedge; assay: Test B flooded paddy test; type: in vivo, Cyperus difformis; details: 1000 g ai/ha, scale 0 to 100 (0 no effect, 100 complete control)
Summary of the method: as §2

ducksalad = assay: Test B flooded paddy test; type: in vivo, Heteranthera limosa; details: 1000 g ai/ha, scale 0 to 100 (0 no effect, 100 complete control)
Summary of the method: as §2

cocklebur = assay: Test B pre-/postemergence herbicide test; type: in vivo, Xanthium strumarium; details: for Cocklebur plant response rating: postemergence
Summary of the method: as §3

barnyardgrass [10] = assay: Test B pre-/postemergence herbicide test; type: in vivo, Echinochloa crus-galli; details: for Barnyardgrass plant response rating: postemergence
Summary of the method: as §3

redroot pigweed = assay: Test A pre-/postemergence herbicide test; type: in vivo, Amaranthus retroflexus
Summary of the method: as §5

wheat = assay: Test B postemergence herbicide test; type: in vivo, Triticum aestivum; design: key to Wheat plant response rating: 0 = no effect, 100 = complete control; details: postemergence
Summary of the method: as §4

morningglory [11] = assay: Test A pre-/postemergence herbicide test; type: in vivo, Ipomoea spp.
Summary of the method: as §5

pigweed = assay: Test B pre-/postemergence herbicide test; type: in vivo, Amaranthus retroflexus; details: for Pigweed plant response rating: postemergence
Summary of the method: as §1

velvetleaf [12] = assay: Test B pre-/postemergence herbicide test; type: in vivo, Abutilon theophrasti; details: for Velvetleaf plant response rating: postemergence
Summary of the method: as §1

large crabgrass [13] = assay: Test B pre-/postemergence herbicide test; type: in vivo, Digitaria sanguinalis; details: for Crabgrass, Large plant response rating: postemergence
Summary of the method: as §1

giant foxtail [14] = assay: Test B pre-/postemergence herbicide test; type: in vivo, Setaria faberi; details: for Foxtail, Giant plant response rating: postemergence
Summary of the method: as §1

[15] = 125 g ai/ha, 0 = no effect, 100 = complete control, preemergence
[16] = 125 g ai/ha, visual rating, scale 0 (no effect) to 100 (complete control)
[17] = 500 g ai/ha, visual rating, 0 = no effect, 100 = complete control, preemergence
[18] = 500 g ai/ha, scale 0 to 100, 0 is no effect, 100 is complete control
[19] = Postemergence, 500 g ai/ha, 0 to 100 scale, 0 no effect, 100 complete control
[20] = Postemergence, 2000 g ai/ha, 0 to 100 scale, 0 no effect, 100 complete control
[21] = Preemergence, 2000 g ai/ha, visual rating, 0 to 100 scale (0 no effect, 100 complete control)
[22] = preemergence, 500 g ai/ha, visual injury, 0 to 100 scale (0 no effect, 100 complete control)

SMILES: CCNC(=O)c1cncc(NC(=O)c2cc(C(C)(C)C)nn2CC)n1 [Compound 288]
- Surinam Grass plant response rating (0 to 100 scale) (Surinam grass; [15]): 0
- Surinam Grass plant response rating (Surinam grass; [16]): 0
- Plant response rating, Surinam Grass (Surinam grass; [17]): 0
- Surinam Grass plant response rating (Surinam grass; [18]): 0
- Rice plant response rating (0 to 100 scale) (rice [1]; 125 g ai/ha): 0
- Plant response rating, Rice (rice [1]; 500 g ai/ha, visual rating): 70
- Barnyardgrass plant response rating (barnyardgrass [2]): 0
- Morningglory plant response rating (0 to 100 scale) (morningglory [3]; [15]): 0
- Morningglory plant response rating (morningglory [3]; [16]): 0
- Plant response rating, Morningglory (morningglory [3]; [17]): 0
- Morningglory plant response rating (morningglory [3]; [18]): 0
- Lambsquarters plant response rating (0 to 100 scale) (lambsquarters; [15]): 0
- Lambsquarters plant response rating (lambsquarters; [16]): 0
- Plant response rating, Lambsquarters (lambsquarters; [17]): 90
- Lambsquarters plant response rating (lambsquarters; [18]): 30
- Oat, Wild plant response rating (wild oat; [16]): 20
- Oat, Wild plant response rating (wild oat; [18]): 40
- Rice plant response rating (rice [4]): 0
- Foxtail, Giant plant response rating (giant foxtail [5]; [19]): 0
- Plant response rating, Foxtail, Giant (giant foxtail [5]; [20]): 10
- Foxtail, Giant plant response rating (giant foxtail [5]; [21]): 75
- Foxtail, Giant plant response rating (giant foxtail [5]; [22]): 15
- Blackgrass plant response rating (blackgrass; [16]): 20
- Blackgrass plant response rating (blackgrass; [18]): 20
- Barnyardgrass plant response rating (barnyardgrass [6]; [19]): 5
- Plant response rating, Barnyardgrass (barnyardgrass [6]; [20]): 65
- Barnyardgrass plant response rating (barnyardgrass [6]; [21]): 75
- Barnyardgrass plant response rating (barnyardgrass [6]; [22]): 20
- Velvetleaf plant response rating (velvetleaf [7]; [19]): 20
- Plant response rating, Velvetleaf (velvetleaf [7]; [20]): 20
- Velvetleaf plant response rating (velvetleaf [7]; [21]): 40
- Velvetleaf plant response rating (velvetleaf [7]; [22]): 10
- Crabgrass, Large plant response rating (large crabgrass [8]; [19]): 0
- Plant response rating, Crabgrass, Large (large crabgrass [8]; [20]): 15
- Crabgrass, Large plant response rating (large crabgrass [8]; [21]): 10
- Crabgrass, Large plant response rating (large crabgrass [8]; [22]): 0
- Corn plant response rating (0 to 100 scale) (corn; [15]): 0
- Corn plant response rating (corn; [16]): 0
- Plant response rating, Corn (corn; [17]): 0
- Corn plant response rating (corn; [18]): 0
- Sedge, Umbrella plant response rating [9]: 60
- Ducksalad plant response rating (ducksalad): 0
- Cocklebur plant response rating (0 to 100 scale) (cocklebur; [15]): 0
- Cocklebur plant response rating (cocklebur; [16]): 0
- Plant response rating, Cocklebur (cocklebur; [17]): 0
- Cocklebur plant response rating (cocklebur; [18]): 0
- Barnyardgrass plant response rating (0 to 100 scale) (barnyardgrass [10]; [15]): 0
- Barnyardgrass plant response rating (barnyardgrass [10]; [16]): 0
- Plant response rating, Barnyardgrass (barnyardgrass [10]; [17]): 70
- Barnyardgrass plant response rating (barnyardgrass [10]; [18]): 0
- Pigweed plant response rating (redroot pigweed; [19]): 20
- Plant response rating, Pigweed (redroot pigweed; [20]): 40
- Pigweed plant response rating (redroot pigweed; [21]): 70
- Pigweed plant response rating (redroot pigweed; [22]): 25
- Wheat plant response rating (wheat; [16]): 20
- Wheat plant response rating (wheat; [18]): 30
- Morningglory plant response rating (morningglory [11]; [19]): 20
- Plant response rating, Morningglory (morningglory [11]; [20]): 20
- Morningglory plant response rating (morningglory [11]; [21]): 30
- Morningglory plant response rating (morningglory [11]; [22]): 5
- Pigweed plant response rating (0 to 100 scale) (pigweed; [15]): 0
- Pigweed plant response rating (pigweed; [16]): 10
- Plant response rating, Pigweed (pigweed; [17]): 90
- Pigweed plant response rating (pigweed; [18]): 20
- Velvetleaf plant response rating (velvetleaf [12]; [16]): 10
- Plant response rating, Velvetleaf (velvetleaf [12]; [17]): 0
- Velvetleaf plant response rating (velvetleaf [12]; [18]): 20
- Crabgrass, Large plant response rating (0 to 100 scale) (large crabgrass [13]; [15]): 0
- Crabgrass, Large plant response rating (large crabgrass [13]; [16]): 0
- Plant response rating, Crabgrass, Large (large crabgrass [13]; [17]): 0
- Crabgrass, Large plant response rating (large crabgrass [13]; [18]): 0
- Foxtail, Giant plant response rating (0 to 100 scale) (giant foxtail [14]; [15]): 0
- Foxtail, Giant plant response rating (giant foxtail [14]; [16]): 0
- Plant response rating, Foxtail, Giant (giant foxtail [14]; [17]): 10
- Foxtail, Giant plant response rating (giant foxtail [14]; [18]): 30

From patent publication US20060069132A1, “Azolecarboxamide herbicides” (priority 2004, published 2006)
